Values quoted from earlier work as cited in patent US12589095B2, “Unit dosage form for transmucosal drug delivery of an active pharmaceutical ingredient” (Primo Pharmatech LLC, priority 2019, dated 2026).

Conditions: known / published value; cited from earlier work

Going from `CCCCCCCCCCCC(=O)OCCOCCO` [Diethylene glycol monolaurate] to `CCCCCCCCCCCCCCCCCC(=O)OCCOCCO` [Diethylene glycol monostearate], the HLB falls from 5.5 to 4.3.

First: CCCCCCCC/C=C\CCCCCCCC(=O)OCC(O)CO (stereo not shown) [Glyceryl monooleate]
Second: CCCCCCCCCCCCCCCCCC(=O)OCC(O)CO (stereo not shown) [Glyceryl monostearate (Tegin), Glyceryl monostearate]
The HLB of the first is lower: 3.4 for the first, 4.7 for the second.

First: CCCCCCCCCCCCCCCCCC(=O)OCC(O)CO (stereo not shown) [Glyceryl monostearate]
Second: CCCCCCCC/C=C\CCCCCCCC(=O)O [Oleic acid]
The HLB of the first is higher: 2.1 for the first, 1.0 for the second.

Going from `CCCCCCCC/C=C\CCCCCCCC(=O)[O-].[K+]` [Potassium oleate] to `CCCCCCCC/C=C\CCCCCCCC(=O)[O-].[Na+]` [Sodium oleate], the HLB falls from 18.0 to 16.9.

Going from Glyceryl dioleate to Polyethylene glycol 400 monolaurate, the HLB rises from 1.8 to 12.8.

Going from “Polyethylene lauryl ether [Polyethylene lauryl ether (Brij 30)]” to “Polyoxyethylene lauryl ether [Polyoxyethylene lauryl ether (G-3705)]”, the HLB rises from 8.6 to 10.5.

Compared with “Polyoxyethylene monostearate [Polyoxyethylene monostearate (Myrj 45)]”, Polyoxyethylene sorbitol wax derivative is lower in HLB: 10.8 for the first, 2.0 for the second.

In the case of sorbitan monooleate [Span 80], the HLB is given as 4.3.

For Sorbitan monolaurate [SPAN 20], the HLB is listed as “SPAN 20 (HLB8.6)”.

Same assay, conditions: known / published value; listed as Oleic Acid; cited from earlier work

For `CCCCCCCC/C=C\CCCCCCCC(=O)O` [Oleic acid], the HLB is given as 1.

Same assay, conditions: known / published value; listed as Sorbitan mono-oleate (Span 80); cited from earlier work

For sorbitan monooleate [Span 80], the HLB is listed as 3.8.

Same assay, conditions: known / published value; listed as Sorbitan monolaurate (Span 20); cited from earlier work

In the case of Sorbitan monolaurate [SPAN 20], the HLB is listed as 6.1.
